Test results published in PubChem BioAssay AID330 (DTP/NCI, 2004).
“And” between values parts separate entries of the source, which are not always exact repeats. Identical values can stand only once. Toxic doses and inconclusive results are not listed. How the source made its calls: active means survival T/C of 150% or more; inactive means T/C below 125% in these data.

System: P388 leukemia ip, CD2F1 mice, survival T/C
Assay: NCI In Vivo Anticancer Drug Screen. Data for tumor model P388 Leukemia (intraperitoneal) in CD2F1 (CDF1) mice
Settings: endpoint: median survival time, higher = longer survival
Outline: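 Mice carrying the transplanted tumor received test compound or vehicle. Survival was recorded in each group, and the value is the treated-group measurement divided by that of the vehicle-treated control group.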

[1] = dose: 50.0 mg/kg/injection, schedule: Q01DX005 (ip), vehicle: Klucel (hydroxypropylcellulose) (HPC)
[2] = dose: 100.0 mg/kg/injection, schedule: Q01DX005 (ip), vehicle: Klucel (hydroxypropylcellulose) (HPC)
[3] = dose: 200.0 mg/kg/injection, schedule: Q01DX005 (ip), vehicle: Klucel (hydroxypropylcellulose) (HPC)
[4] = dose: 50.0 mg/kg/injection, schedule: Q01DX005 (ip), vehicle: saline with Tween-80
[5] = dose: 100.0 mg/kg/injection, schedule: Q01DX005 (ip), vehicle: saline with Tween-80
[6] = dose: 200.0 mg/kg/injection, schedule: Q01DX005 (ip), vehicle: saline with Tween-80
[7] = dose: 25.0 mg/kg/injection, schedule: Q04DX002 (ip), vehicle: saline with Tween-80
[8] = dose: 50.0 mg/kg/injection, schedule: Q04DX002 (ip), vehicle: saline with Tween-80

Measured: T/C

O=c1c2ccccc2c(=O)c2c1ccc1[nH]c3ccccc3n(-c3ccccc3)c12
inactive: [1] 101 % of control | [2] 100 % of control | [3] 100 % of control

C#Cc1cccc(N=Cc2cc([N+](=O)[O-])cc(Br)c2O)c1
inactive: [4] 100 % of control | [5] 105 % of control | [6] 105 % of control

Cc1cc(=NC(C)(C)C)nc2c3ccccc3c(Cl)cn12
inactive: dose: 1.56 mg/kg/injection, schedule: Q01DX005 (ip), vehicle: saline with Tween-80 100 % of control | dose: 3.13 mg/kg/injection, schedule: Q01DX005 (ip), vehicle: saline with Tween-80 100 % of control | dose: 6.25 mg/kg/injection, schedule: Q01DX005 (ip), vehicle: saline with Tween-80 103 % of control and 98 % of control

c1ccc2c(c1)oc1c3c(ccc12)NCCC3
inactive: [4] 104 % of control | [5] 99 % of control | [6] 104 % of control

CCOC(=O)CC1(O)CSC(=C(C#N)C#N)S1 (stereo not drawn)
inactive: [4] 100 % of control | [5] 100 % of control | [6] 92 % of control

COc1cc(NCCN(CC(C)C)C2CCCC2)c2ncccc2c1
inactive: dose: 12.5 mg/kg/injection, schedule: Q01DX005 (ip), vehicle: saline 100 % of control and 106 % of control | dose: 25.0 mg/kg/injection, schedule: Q01DX005 (ip), vehicle: saline 100 % of control and 114 % of control | dose: 50.0 mg/kg/injection, schedule: Q01DX005 (ip), vehicle: saline 101 % of control and 103 % of control and 106 % of control | dose: 100.0 mg/kg/injection, schedule: Q01DX005 (ip), vehicle: saline 121 % of control and 90 % of control and 96 % of control

[CH3][Ge]([CH3])=[O]
inactive: dose: 50.0 mg/kg/injection, schedule: Q01DX009 (ip), vehicle: saline 102 % of control | dose: 100.0 mg/kg/injection, schedule: Q01DX009 (ip), vehicle: saline 91 % of control | dose: 200.0 mg/kg/injection, schedule: Q01DX009 (ip), vehicle: saline 100 % of control

S=C(SCc1ccccc1)N1CCN(C(=S)SCc2ccccc2)CC1
inactive: dose: 50.0 mg/kg/injection, schedule: Q01DX009 (ip), vehicle: saline with Tween-80 89 % of control | dose: 100.0 mg/kg/injection, schedule: Q01DX009 (ip), vehicle: saline with Tween-80 91 % of control | dose: 200.0 mg/kg/injection, schedule: Q01DX009 (ip), vehicle: saline with Tween-80 91 % of control

CCCc1cc(=O)[nH]c(Sc2ccc([N+](=O)[O-])cn2)n1
inactive: dose: 3.12 mg/kg/injection, schedule: Q01DX005 (ip), vehicle: Klucel (hydroxypropylcellulose) (HPC) 101 % of control | dose: 6.25 mg/kg/injection, schedule: Q01DX005 (ip), vehicle: Klucel (hydroxypropylcellulose) (HPC) 101 % of control | dose: 12.5 mg/kg/injection, schedule: Q01DX005 (ip), vehicle: Klucel (hydroxypropylcellulose) (HPC) 106 % of control

CN(c1ccccc1)C(C#N)c1n[nH]c(=O)[nH]1 (stereo not drawn)
inactive: [7] 100 % of control | [8] 100 % of control | dose: 100.0 mg/kg/injection, schedule: Q04DX002 (ip), vehicle: saline with Tween-80 93 % of control

CC[n+]1c(/C=C/c2ccc(N(CCC(=O)O)CCC(=O)O)cc2)ccc2ccccc21
inactive: dose: 12.5 mg/kg/injection, schedule: Q04DX002 (ip), vehicle: saline with Tween-80 100 % of control | [7] 106 % of control | [8] 106 % of control

CN1C2=CC=CC=CC2=[N+](C)C1C(=C=[N-])C#N (stereo not drawn)
inactive: dose: 15.0 mg/kg/injection, schedule: Q01DX005 (ip), vehicle: saline with Tween-80 104 % of control | dose: 30.0 mg/kg/injection, schedule: Q01DX005 (ip), vehicle: saline with Tween-80 107 % of control | dose: 60.0 mg/kg/injection, schedule: Q01DX005 (ip), vehicle: saline with Tween-80 107 % of control and 115 % of control

O=C(NC(Cc1ccc(Cl)cc1)C(=O)O)c1ccc(I)cc1 (stereo not drawn)
inactive: [1] 101 % of control | [2] 101 % of control | [3] 94 % of control

CC(=O)O/N=C(C)/C(C)=N/Nc1ccccc1
inactive: [4] 93 % of control | [5] 89 % of control | [6] 87 % of control
